Source: patent US20240035063A1, “SYNTHETIC MIXED CULTURE RESEMBLING A SKIN MICROBIOME” (Evonik Operations GmbH, priority 2020, published 2024)

Assays:
[1] = tested on: synthetic mixed culture resembling a skin microbiome (core microbiome model, strain mix ratio 1); experiment: Anaerobic cultivation of core skin microbiome model (ratio 1) with test compound; format: cell-based; conditions: ratio 1, compound added at T=0, T=22 h
Description: Preculture cultivation and ratio mixing is carried out as in example 1. Anaerobic cultivation is done using a BioLector [[…]-labs; Arnold-Sommerfeld-Ring 2, 52499 Baesweiler] small scale test system with MTP-48-BOH 1 plates and the anaerobic module including an external mass flow controller for nitrogen (N2). 100 μl of strain mix, according to the ratios in table 2 are added to 1 ml BHI media resulting in a starting OD600 of 0.091. Cultivation is done at 37° C., a shaking frequency of 600 rpm and under nitrogen flushing for 22 h until the process is stopped. Preculture cultivation, ratio mixing and cultivation is carried out as in example 1 or 2. Test compounds are added to the cultures at T=0, 4, 8, 12, 16, or 24 h. At the end of the cultivation samples are taken and processed as in example 1 or 2 and results are compared to non-treated cultures to evaluate the effect of the test compounds on the core microbiome model.

[2] = tested on: synthetic mixed culture resembling a skin microbiome (core microbiome model, strain mix ratio 1); experiment: Aerobic cultivation of core skin microbiome model (ratio 1) with test compound, 16S rRNA sequencing; format: cell-based; conditions: ratio 1, compound added at T=0, T=28 h
Description: Individual bacterial strains are inoculated from cryocultures to initiate preculture growth. BHI Media (110493; Merck KGaA, 64293 Darmstadt) or DSMZ media 92 or DSMZ media 535 media according to the recommendations of the German Collection of Microorganisms and Cell Cultures GmbH are used for preculture cultivation. At the end of cultivation strains are diluted to result in an optical density of OD600=1 using BHI media. These single strain cultures are mixed in defined strain ratios depending on their growth properties. Cultivation is carried out using a BioLector [[…]-labs; Arnold-Sommerfeld-Ring 2, 52499 Baesweiler] small scale test system with MTP-48-BOH 1 plates. 100 μl of strain mix, according to the ratios in table 2 are added to 1 ml BHI media in resulting in a starting OD600 of 0.091. Cultivation is done at 37° C., a shaking frequency of 600 rpm and relative humidity of 85% for 28 h until the process is stopped. At the end of cultivation OD600 is determined, and the remaining culture is centrifuged at 4° C., 5000 rpm and 5 min in an Eppendorf table centrifuge. The supernatant is discarded, and the pellet is stored at -20° C. Genomic DNA is extracted from these samples using the DNeasy PowerSoil Pro Kit [Qiagen GmbH, QIAGEN Strasse 1, 40724 Hilden]. DNA samples are analyzed by LGC Genomics GmbH [Ostendstraße 25, 12459 Berlin] using primer pair 341 F, Seq. ID NO 1, and […], Seq. ID NO 2, or library preparation and […] MiSeq for sequencing. Results are processed by LGC Genomics GmbH and mapped to an individual reference database containing the sequences of the strains which are present in the individual model. Preculture cultivation, ratio mixing and cultivation is carried out as in example 1 or 2. Test compounds are added to the cultures at T=0, 4, 8, 12, 16, or 24 h. At the end of the cultivation samples are taken and processed as in example 1 or 2 and results are compared to non-treated cultures to evaluate the effect of the test compounds on the core microbiome model.

Row | Molecule | general trends compared with aerobic conditions [1] | abundance of all other species ([2]; species other than S. warneri (and S. capitis for the lysate)) | abundance of S. warneri ([2]; vs non-treated culture) | microbial diversity ([2]; vs non-treated culture) | shift compared to the baseline composition ([2]; vs non-treated culture) | relative abundance of S. aureus ([2]; vs non-treated culture) | relative abundance of S. epidermidis ([2]; vs non-treated culture) | relative abundance of S. hominis ([2]; vs non-treated culture)
1 | sodium lauryl ether sulfate | remain the same | at the expense of all other Staphylococcus species | significantly increased abundance | remarked loss of diversity | drastic microbial community shifts |  |  | 
2 | CN(CC(=O)O)C(=N)N [Creatine] | remain the same |  |  |  | minor shift | slightly decreased | slightly increased | slightly increased
